Results taken from patent US8791107B2, “N-substituted oxazinopteridines and oxazinopteridinones” (Takeda Pharmaceutical Company Limited, priority 2011, dated 2014).

Target: T1, PI3Kδ (Homo sapiens, UniProt O00329)
T1 construct: The protein is full length and co-expressed with untagged PIK3R1; GST; purchased Invitrogen PV5274
Test: PI3Kδ inhibition, modified PIK3CD Adapta TR-FRET assay
Type: biochemical
Conditions: recombinant GST-tagged full length PIK3CD co-expressed with PIK3R1 (p85α); 2 μM ATP, 50 μM PIP2; read-out: PI3Kδ Inhibition (pIC50) (converted)
Procedure, shortened: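 Full-length GST-PIK3CD co-expressed with p85α was run in 50 mM HEPES pH 7.5, 3 mM MgCl2, 1 mM EGTA, 100 mM NaCl, 0.03% CHAPS, 2 mM DTT, 1% DMSO, with 12-point compound titrations. Reactions at room temperature were started with solution containing 2 μM ATP and 50 μM PIP2. ADP was detected by Adapta TR-FRET (620 nm-ratioed).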

T1 sequence (O00329 whole entry): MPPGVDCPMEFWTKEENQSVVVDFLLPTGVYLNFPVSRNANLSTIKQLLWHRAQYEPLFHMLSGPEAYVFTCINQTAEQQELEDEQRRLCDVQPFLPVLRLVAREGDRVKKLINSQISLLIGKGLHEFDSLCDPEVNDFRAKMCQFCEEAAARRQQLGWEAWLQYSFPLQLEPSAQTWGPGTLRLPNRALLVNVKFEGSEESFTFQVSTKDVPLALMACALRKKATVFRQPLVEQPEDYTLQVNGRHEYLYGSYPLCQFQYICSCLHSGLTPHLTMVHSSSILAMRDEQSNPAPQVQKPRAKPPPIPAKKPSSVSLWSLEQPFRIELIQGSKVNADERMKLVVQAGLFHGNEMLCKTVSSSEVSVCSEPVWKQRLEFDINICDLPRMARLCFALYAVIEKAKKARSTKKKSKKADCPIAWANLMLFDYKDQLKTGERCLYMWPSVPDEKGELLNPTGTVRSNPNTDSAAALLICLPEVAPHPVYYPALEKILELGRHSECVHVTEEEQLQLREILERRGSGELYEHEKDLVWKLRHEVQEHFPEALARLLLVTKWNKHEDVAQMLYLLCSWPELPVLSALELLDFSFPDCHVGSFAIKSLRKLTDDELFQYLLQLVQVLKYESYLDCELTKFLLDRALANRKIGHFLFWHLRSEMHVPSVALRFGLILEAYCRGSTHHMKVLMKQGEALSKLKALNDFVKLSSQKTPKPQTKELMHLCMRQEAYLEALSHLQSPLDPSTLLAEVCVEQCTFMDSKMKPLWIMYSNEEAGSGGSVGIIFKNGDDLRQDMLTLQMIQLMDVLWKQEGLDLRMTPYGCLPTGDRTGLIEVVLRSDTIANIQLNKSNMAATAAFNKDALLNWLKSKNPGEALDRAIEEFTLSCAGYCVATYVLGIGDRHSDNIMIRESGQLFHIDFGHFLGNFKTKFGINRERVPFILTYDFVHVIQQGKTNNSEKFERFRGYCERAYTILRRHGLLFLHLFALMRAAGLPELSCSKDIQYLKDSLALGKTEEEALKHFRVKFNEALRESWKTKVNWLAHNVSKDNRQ
T1 sequence (P27986 whole entry partner): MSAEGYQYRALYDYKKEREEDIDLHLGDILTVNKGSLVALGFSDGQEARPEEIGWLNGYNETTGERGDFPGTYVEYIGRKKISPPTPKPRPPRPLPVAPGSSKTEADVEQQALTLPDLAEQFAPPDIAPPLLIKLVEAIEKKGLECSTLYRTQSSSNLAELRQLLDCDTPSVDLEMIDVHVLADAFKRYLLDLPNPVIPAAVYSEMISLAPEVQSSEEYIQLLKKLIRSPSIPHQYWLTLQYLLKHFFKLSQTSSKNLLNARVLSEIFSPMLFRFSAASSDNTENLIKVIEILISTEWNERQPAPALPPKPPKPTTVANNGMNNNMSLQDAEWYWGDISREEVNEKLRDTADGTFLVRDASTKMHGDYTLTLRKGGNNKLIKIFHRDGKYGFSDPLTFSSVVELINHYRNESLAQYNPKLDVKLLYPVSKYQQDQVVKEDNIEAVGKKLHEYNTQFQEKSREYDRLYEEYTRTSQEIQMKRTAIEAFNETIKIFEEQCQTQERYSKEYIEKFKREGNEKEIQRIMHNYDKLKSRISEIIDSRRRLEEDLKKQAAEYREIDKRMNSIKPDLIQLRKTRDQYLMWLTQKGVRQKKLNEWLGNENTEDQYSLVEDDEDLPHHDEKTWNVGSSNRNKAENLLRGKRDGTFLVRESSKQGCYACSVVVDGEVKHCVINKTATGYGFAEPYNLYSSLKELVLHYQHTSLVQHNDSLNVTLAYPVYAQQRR

SMILES	IC50
CNC(=O)Nc1ccc(-c2ncc3c(n2)N2CCOCC2C(=O)N3[C@H](C)c2ccc(Cl)cc2)cc1 (stereo partly drawn) [Example 84, 1-(4-(5-((R)-1-(4-chlorophenyl)ethyl)-6-oxo-5,6,6a,7,9,10-hexahydro-[1,4]oxazino[3,4-h]pteridin-2-yl)phenyl)-3-methylurea]	126 nM
CNC(=O)Nc1ccc(-c2ncc3c(n2)N2CCOCC2C(=O)N3Cc2ccc(C(=O)OC)cc2)cc1 (stereo not drawn) [Example 88, methyl 4-((2-(4-(3-methylureido)phenyl)-6-oxo-6a,7,9,10-tetrahydro-[1,4]oxazino[3,4-h]pteridin-5(6H)-yl)methyl)benzoate]	6.31 nM
CNC(=O)Nc1ccc(-c2ncc3c(n2)N2CCOCC2C(=O)N3Cc2cccc(-n3cccc3)c2)cc1 (stereo not drawn) [Example 90, 1-(4-(5-(3-(1H-pyrrol-1-yl)benzyl)-6-oxo-5,6,6a,7,9,10-hexahydro-[1,4]oxazino[3,4-h]pteridin-2-yl)phenyl)-3-methylurea]	5.01 nM
CNC(=O)Nc1ccc(-c2ncc3c(n2)N2CCOCC2C(=O)N3Cc2ccc(S(C)(=O)=O)cc2)cc1 (stereo not drawn) [Example 91, 1-methyl-3-(4-(5-(4-(methylsulfonyl)benzyl)-6-oxo-5,6,6a,7,9,10-hexahydro-[1,4]oxazino[3,4-h]pteridin-2-yl)phenyl)urea]	0.794 nM
CNC(=O)Nc1ccc(-c2ncc3c(n2)N2CCOCC2C(=O)N3CCc2c(C)n[nH]c2C)cc1 (stereo not drawn) [Example 94, 1-(4-(5-(2-(3,5-dimethyl-1H-pyrazol-4-yl)ethyl)-6-oxo-5,6,6a,7,9,10-hexahydro-[1,4]oxazino[3,4-h]pteridin-2-yl)phenyl)-3-methylurea]	2.51 nM
CNC(=O)Nc1ccc(-c2ncc3c(n2)N2CCOCC2C(=O)N3Cc2ccc(S(C)(=O)=O)cc2Cl)cc1 (stereo not drawn) [Example 95, 1-(4-(5-(2-chloro-4-(methylsulfonyl)benzyl)-6-oxo-5,6,6a,7,9,10-hexahydro-[1,4]oxazino[3,4-h]pteridin-2-yl)phenyl)-3-methylurea]	0.794 nM
O=C1C2COCCN2c2nc(-c3cn[nH]c3)ncc2N1[C@H]1CCc2ccccc21 (stereo partly drawn) [Example 96, 5-((S)-2,3-dihydro-1H-inden-1-yl)-2-(1H-pyrazol-4-yl)-6a,7,9,10-tetrahydro-[1,4]oxazino[3,4-h]pteridin-6(5H)-one]	631 nM
CC(=O)Nc1cccc(-c2ncc3c(n2)N2CCOCC2C(=O)N3Cc2ccc(S(C)(=O)=O)cc2)c1 (stereo not drawn) [Example 101, N-(3-(5-(4-(methylsulfonyl)benzyl)-6-oxo-5,6,6a,7,9,10-hexahydro-[1,4]oxazino[3,4-h]pteridin-2-yl)phenyl)acetamide]	316 nM
CS(=O)(=O)c1ccc(CN2C(=O)C3COCCN3c3nc(-c4cccc(N)c4)ncc32)cc1 (stereo not drawn) [Example 103, 2-(3-aminophenyl)-5-(4-(methylsulfonyl)benzyl)-6a,7,9,10-tetrahydro-[1,4]oxazino[3,4-h]pteridin-6(5H)-one]	126 nM
CC(=O)Nc1ccccc1-c1ncc2c(n1)N1CCOCC1C(=O)N2Cc1ccc(S(C)(=O)=O)cc1 (stereo not drawn) [Example 104, N-(2-(5-(4-(methylsulfonyl)benzyl)-6-oxo-5,6,6a,7,9,10-hexahydro-[1,4]oxazino[3,4-h]pteridin-2-yl)phenyl)acetamide]	200 nM
CCOC(=O)c1cncc(-c2ncc3c(n2)N2CCOCC2C(=O)N3Cc2ccc(S(C)(=O)=O)cc2)c1 (stereo not drawn) [Example 105, ethyl 5-(5-(4-(methylsulfonyl)benzyl)-6-oxo-5,6,6a,7,9,10-hexahydro-[1,4]oxazino[3,4-h]pteridin-2-yl)nicotinate]	7940 nM
CS(=O)(=O)c1ccc(CN2C(=O)C3COCCN3c3nc(-c4cnc5[nH]ccc5c4)ncc32)cc1 (stereo not drawn) [Example 108, 5-(4-(methylsulfonyl)benzyl)-2-(1H-pyrrolo[2,3-b]pyridin-5-yl)-6a,7,9,10-tetrahydro-[1,4]oxazino[3,4-h]pteridin-6(5H)-one]	31.6 nM
CNC(=O)c1ccc(-c2ncc3c(n2)N2CCOCC2C(=O)N3Cc2ccc(S(C)(=O)=O)cc2)cn1 (stereo not drawn) [Example 109, N-methyl-5-(5-(4-(methylsulfonyl)benzyl)-6-oxo-5,6,6a,7,9,10-hexahydro-[1,4]oxazino[3,4-h]pteridin-2-yl)picolinamide]	7940 nM
CS(=O)(=O)c1ccc(CN2C(=O)C3COCCN3c3nc(-c4cccc(-c5cc[nH]n5)c4)ncc32)cc1 (stereo not drawn) [Example 110, 2-(3-(1H-pyrazol-3-yl)phenyl)-5-(4-(methylsulfonyl)benzyl)-6a,7,9,10-tetrahydro-[1,4]oxazino[3,4-h]pteridin-6(5H)-one]	3160 nM
CS(=O)(=O)c1ccc(CN2C(=O)C3COCCN3c3nc(-c4cccc(C(N)=O)c4)ncc32)cc1 (stereo not drawn) [Example 113, 3-(5-(4-(methylsulfonyl)benzyl)-6-oxo-5,6,6a,7,9,10-hexahydro-[1,4]oxazino[3,4-h]pteridin-2-yl)benzamide]	501 nM
CS(=O)(=O)c1ccc(CN2C(=O)C3COCCN3c3nc(-c4ccc5[nH]ncc5c4)ncc32)cc1 (stereo not drawn) [Example 114, 2-(1H-indazol-5-yl)-5-(4-(methylsulfonyl)benzyl)-6a,7,9,10-tetrahydro-[1,4]oxazino[3,4-h]pteridin-6(5H)-one]	200 nM
CS(=O)(=O)c1ccc(CN2C(=O)C3COCCN3c3nc(-c4cccc(S(=O)(=O)NC5CC5)c4)ncc32)cc1 (stereo not drawn) [Example 116, N-cyclopropyl-3-(5-(4-(methylsulfonyl)benzyl)-6-oxo-5,6,6a,7,9,10-hexahydro-[1,4]oxazino[3,4-h]pteridin-2-yl)benzenesulfonamide]	1580 nM

Results, then the molecule that gave them:

IC50	SMILES
63.1 nM	CNC(=O)Nc1ccc(-c2ncc3c(n2)N2CCOCC2C(=O)N3Cc2ccc(Cl)cc2)cc1 (stereo not drawn) [Example 89, 1-(4-(5-(4-chlorobenzyl)-6-oxo-5,6,6a,7,9,10-hexahydro-[1,4]oxazino[3,4-h]pteridin-2-yl)phenyl)-3-methylurea]
2 nM	CNC(=O)Nc1ccc(-c2ncc3c(n2)N2CCOCC2C(=O)N3Cc2ccc(-n3cncn3)cc2)cc1 (stereo not drawn) [Example 92, 1-(4-(5-(4-(1H-1,2,4-triazol-1-yl)benzyl)-6-oxo-5,6,6a,7,9,10-hexahydro-[1,4]oxazino[3,4-h]pteridin-2-yl)phenyl)-3-methylurea]
5.01 nM	CNC(=O)Nc1ccc(-c2ncc3c(n2)N2CCOCC2C(=O)N3CC2CC2(F)F)cc1 (stereo not drawn) [Example 93, 1-(4-(5-((2,2-difluorocyclopropyl)methyl)-6-oxo-5,6,6a,7,9,10-hexahydro-[1,4]oxazino[3,4-h]pteridin-2-yl)phenyl)-3-methylurea]
6310 nM	CC(C)NS(=O)(=O)c1cccc(-c2ncc3c(n2)N2CCOCC2C(=O)N3Cc2ccc(S(C)(=O)=O)cc2)c1 (stereo not drawn) [Example 98, N-isopropyl-3-(5-(4-(methylsulfonyl)benzyl)-6-oxo-5,6,6a,7,9,10-hexahydro-[1,4]oxazino[3,4-h]pteridin-2-yl)benzenesulfonamide]
6.31 nM	CNC(=O)Nc1ccc(-c2ncc3c(n2)N2CCOCC2C(=O)N3C2(c3ccc(Cl)cc3)CC2)cc1 (stereo not drawn) [Example 99, 1-(4-(5-(1-(4-chlorophenyl)cyclopropyl)-6-oxo-5,6,6a,7,9,10-hexahydro-[1,4]oxazino[3,4-h]pteridin-2-yl)phenyl)-3-methylurea]
3980 nM	CS(=O)(=O)c1ccc(CN2C(=O)C3COCCN3c3nc(-c4ccc5cc[nH]c5c4)ncc32)cc1 (stereo not drawn) [Example 100, 2-(1H-indol-6-yl)-5-(4-(methylsulfonyl)benzyl)-6a,7,9,10-tetrahydro-[1,4]oxazino[3,4-h]pteridin-6(5H)-one]
200 nM	CS(=O)(=O)Nc1ccc(-c2ncc3c(n2)N2CCOCC2C(=O)N3Cc2ccc(S(C)(=O)=O)cc2)cc1 (stereo not drawn) [Example 102, N-(4-(5-(4-(methylsulfonyl)benzyl)-6-oxo-5,6,6a,7,9,10-hexahydro-[1,4]oxazino[3,4-h]pteridin-2-yl)phenyl)methanesulfonamide]
7.94 nM	CS(=O)(=O)c1ccc(CN2C(=O)C3COCCN3c3nc(-c4ccc(N)nc4)ncc32)cc1 (stereo not drawn) [Example 106, 2-(6-aminopyridin-3-yl)-5-(4-(methylsulfonyl)benzyl)-6a,7,9,10-tetrahydro-[1,4]oxazino[3,4-h]pteridin-6(5H)-one]
398 nM	CS(=O)(=O)c1ccc(CN2C(=O)C3COCCN3c3nc(-c4ccc(C(N)=O)cc4)ncc32)cc1 (stereo not drawn) [Example 107, 4-(5-(4-(methylsulfonyl)benzyl)-6-oxo-5,6,6a,7,9,10-hexahydro-[1,4]oxazino[3,4-h]pteridin-2-yl)benzamide]
1580 nM	CNS(=O)(=O)c1cccc(-c2ncc3c(n2)N2CCOCC2C(=O)N3Cc2ccc(S(C)(=O)=O)cc2)c1 (stereo not drawn) [Example 111, N-methyl-3-(5-(4-(methylsulfonyl)benzyl)-6-oxo-5,6,6a,7,9,10-hexahydro-[1,4]oxazino[3,4-h]pteridin-2-yl)benzenesulfonamide]
31.6 nM	CC(=O)Nc1ccc(-c2ncc3c(n2)N2CCOCC2C(=O)N3Cc2ccc(S(C)(=O)=O)cc2)cc1 (stereo not drawn) [Example 112, N-(4-(5-(4-(methylsulfonyl)benzyl)-6-oxo-5,6,6a,7,9,10-hexahydro-[1,4]oxazino[3,4-h]pteridin-2-yl)phenyl)acetamide]
631 nM	CS(=O)(=O)c1ccc(CN2C(=O)C3COCCN3c3nc(-c4cccc(S(N)(=O)=O)c4)ncc32)cc1 (stereo not drawn) [Example 115, 3-(5-(4-(methylsulfonyl)benzyl)-6-oxo-5,6,6a,7,9,10-hexahydro-[1,4]oxazino[3,4-h]pteridin-2-yl)benzenesulfonamide]
794 nM	CS(=O)(=O)Nc1cccc(-c2ncc3c(n2)N2CCOCC2C(=O)N3Cc2ccc(S(C)(=O)=O)cc2)c1 (stereo not drawn) [Example 117, N-(3-(5-(4-(methylsulfonyl)benzyl)-6-oxo-5,6,6a,7,9,10-hexahydro-[1,4]oxazino[3,4-h]pteridin-2-yl)phenyl)methanesulfonamide]
